Data on 1 compound can be found in article PMC7797697 (Theranostics, 2021).

One data set concerns MEF. The data set is described as follows: CCK8 assay IC50. In kind it is cell-based, mouse. The settings on record: Mus musculus, normal cells, 72 h. From the text:
HeLa, MCF-7 and MDA-MB-231 cell lines were purchased from the American Type Culture Collection. MCF-10A, T-47D, PANC-1, A549, HCT-15, Caco-2, SMMC-7721, SH-SY5Y, HUVEC and PC-3 cell lines were obtained from the Chinese Academy of Medical Sciences. MEF was isolated from pregnant mice at 14‒16 days of pregnancy. Primary breast cancer cells were isolated from breast cancer patients. All media including Dulbecco Modified Eagle Medium (DMEM), RPMI 1640 Medium and DMEM/Nutrient Mixture F-12 were supplemented with 10% fetal bovine serum (FBS), 100 units/mL penicillin, and […] streptomycin (Gibco, Waltham, MA, USA). Cells were cultured in a humidified incubator equilibrated with 5% CO2 at 37 °C. Cells were treated for 24-72 h in adherent conditions with compounds from an epigenetic small molecule inhibitor library (L1200, Topscience, Shanghai, China).
(§1) Cell viability was then detected using a CCK8 assay (MedChemExpress, USA) according to the manufacturer's instructions.
Statistical analyses of all data were performed using GraphPad Prism (version 8.0, Graph Pad Software Inc., San Diego, CA, USA). All the data were analyzed by Student's t-test or one-way ANOVA. The Z-Score was chosen to evaluate the results and experimental deviation. Quantitative data are presented as the mean ± SD. […] IC50 was calculated using a four-parameter fit with variable slope in GraphPad Prism.

Data set [1] deals with Gαq, PLCβ3, PMCA1 and PMCA4b in MDA-MB-231 cells. Kind of data set: Expression of calcium influx and efflux markers (Western blot, RT-qPCR). In kind it is cell-based, human. Here is the method: Reverse transcription was performed using the RevertAid First Strand cDNA Synthesis Kit ([…]) according to the manufacturer's instructions. The primers for the detection of target mRNA are shown in Table S2. β-actin was used as an internal reference. The relative expression of target genes was calculated by the 2^-ΔΔCt method.

In another data set the test system is PANC-1. Kind of data set: CCK8 assay IC50. In kind it is cell-based. The settings on record: Homo sapiens, PANC-1, pancreatic cancer, 72 h. Here is the method:
as §1
(§2) Statistical analyses of all data were performed using GraphPad Prism (version 8.0, Graph Pad Software Inc., San Diego, CA, USA). All the data were analyzed by Student's t-test or one-way ANOVA. The Z-Score was chosen to evaluate the results and experimental deviation. Quantitative data are presented as the mean ± SD. The asterisk (*) denotes statistically significant difference (P < 0.05). IC50 was calculated using a four-parameter fit with variable slope in GraphPad Prism.

In another data set the test system is PC-3. Kind of data set: CCK8 assay IC50. In kind it is cell-based. The settings on record: Homo sapiens, PC-3, prostatic cancer, 72 h. Here is the method:
as §1, §2

For another data set, the system named is HCT-15. Kind of data set: CCK8 assay IC50. The settings on record: Homo sapiens, HCT-15, colon cancer, 72 h. In kind it is cell-based. Here is the method: as §1, §2
A further data set relates to MCF-7. The data set is described as follows: CCK8 assay IC50. In kind it is cell-based. The conditions noted are these: Homo sapiens, MCF7; MCF-7, 72 h, CCK8, value of the text. Here is the method:
as §1, §2

Another data set has as its system T-47D. Kind of data set: CCK8 assay IC50. In kind it is cell-based. The conditions noted are these: Homo sapiens, T47D, breast cancer, 72 h. As to the method: as §1, §2
A further data set has as its system Caco-2. Kind of data set: CCK8 assay IC50. In kind it is cell-based. The conditions noted are these: Homo sapiens, Caco-2, colon cancer, 72 h. Here is the method:
as §1, §2

In another data set the test system is SMMC-7721. The data set is described as follows: CCK8 assay IC50. In kind it is cell-based. The settings on record: Homo sapiens, SMMC-7721, liver cancer, 72 h. Here is the method: as §1, §2
The test system of a further data set is HeLa. The data set is described as follows: CCK8 assay IC50. The settings on record: Homo sapiens, cervical cancer, 72 h. In kind it is cell-based. As to the method: as §1, §2
A further data set deals with A549. Kind of data set: CCK8 assay IC50. In kind it is cell-based. The conditions noted are these: Homo sapiens, A549, lung cancer, 72 h. As to the method:
as §1, §2

The test system of a further data set is SH-SY5Y. The data set is described as follows: CCK8 assay IC50. In kind it is cell-based. The settings on record: Homo sapiens, neuroblastoma, 72 h. Here is the method:
as §1, §2

Data set [2] in a line: Pathological examination (H&E) of main organs. The settings on record: i.v., 50 mg/kg, every other day for four weeks. In kind it is in vivo, nude mice. As to the method: MDA-MB-231 (5 × 10^6 cells) were inoculated into the left abdominal mammary fat pad of 6-week-old female nude mice, and tumor growth was monitored. […] After four weeks of treatment, all mice were sacrificed according to ethical guidelines. Tumors were excised and analyzed. Tumor volume was measured using a Vernier caliper and calculated according to the following formula: π/6 × length × width^2. All animal handling and procedures were approved by the Capital Medical University Institutional Animal Care. Tumor and adjacent tissues were rapidly fixed in 4% paraformaldehyde (Sigma-Aldrich) for at least 24 h and embedded in paraffin for microscopic examination. From the prepared paraffin blocks, 5-μm thick sections were cut and stained with hematoxylin and eosin (H&E) for light microscopic observation. Sections were processed as per standard protocols using 3,3'-diaminobenzidine (DAB) staining. All human and mouse tissues were collected according to protocols approved by the Ethics Committee of Capital Medical University, and informed consent was obtained from all patients.

The test system of data set [3] is MDA-MB-231 cells. Kind of data set: Intracellular calcium measurement (Fluo-4-AM). In kind it is cell-based, human. The conditions noted are these: 100 nM or 200 nM for 24 h. As to the method:
After treatment, the cells were digested and seeded in 96-well black plates (Corning Costar, Cambridge, MA, USA) and cultured for 20 h. For measurement of [Ca^2+]i, the cells were labeled with Fluo-4-AM in serum-free medium for half an hour at room temperature. After washing with Dulbecco's Phosphate Buffered Saline (D-PBS), cells were overlaid in Hank's balanced salt solution (5.4 mM KCl, 1 mM MgCl2, 20 mM hydroxyethyl piperazineethanesulfonic acid (HEPES), 120 mM NaCl, 10 mM glucose, 0.2 mM Ethylenebis(oxyethylenenitrilo)tetraacetic acid (EGTA)). Continuous fluorescence intensity was detected after thrombin was added as a calcium agonist by an automated sampler. Response over baseline was assessed as a relative measure of [Ca^2+]i.
As previously stated, studies have shown that the Ca^2+ signals can modulate cancer progression by regulating migration, proliferation, cell stress, and apoptosis.

Data set [4] has as its system MDA-MB-231 cells. The data set is described as follows: TUNEL assay. In kind it is cell-based, human. The conditions noted are these: compared to DMSO treatment. From the text:
Apoptosis was detected using a Cell Death Detection Fluorescein Kit for TUNEL assay (RiboBio, Guangzhou, China) according to the manufacturer's instructions. […] Signals were detected by fluorescence microscopy. Non-apoptotic cells were visualized under a DAPI (4′,6-diamidino-2-phenylindole) filter.

Another data set concerns RGS2 promoter. The data set is described as follows: qChIP of H3 acetylation. In kind it is cell-based. The settings on record: MDA-MB-231, T-47D and 4T1 cells.
The subject of another data set is histone deacetylase. Kind of data set: Western blot of acetylated histone H3 and acetylated α-tubulin. In kind it is cell-based, human. The settings on record: MDA-MB-231 cells, 100 or 200 nM, 24-72 h.
The subject of data set [5] is non-breast cancer cell lines. Kind of data set: CCK8 assay IC50, panel summary. In kind it is cell-based. The settings on record: panel of non-breast cancer cell lines, 72 h. As to the method: as §1, §2
Another data set deals with HUVEC. Kind of data set: CCK8 assay IC50. In kind it is cell-based, human. The settings on record: 72 h, normal cells. Here is the method:
as §1, §2

For another data set, the system named is MDA-MB-231. Kind of data set: CCK8 assay IC50. In kind it is cell-based, human. The conditions noted are these: Homo sapiens; MDA-MB-231, 72 h, CCK8, value of the text. As to the method:
as §1, §2

SMILES strings stand for the structures.

Protocol for RGS2 promoter: Briefly, the cells were cross-linked with 1% formaldehyde, sonicated, pre-cleared, and incubated with 4 μg of Ace-H3 antibody or IgG, which was followed by the addition of Dynabeads Protein G. Next, the beads were washed with high- and low-salt-concentration buffers, and DNA was eluted and purified using the QIAquick PCR Purification Kit. The amount of the DNA template was analyzed by qPCR using primers specific for five promoter regions.
Protocol for histone deacetylase: Total protein was assessed by sodium dodecyl sulfate-polyacrylamide gel electrophoresis using 10% or 15% gels, followed by immunoblotting with the following antibodies. Anti-glyceraldehyde 3-phosphate dehydrogenase (GAPDH) antibody (AC002) was purchased from ABclonal Technology (Woburn, MA, USA); anti-PLCβ3 antibody (14247) was purchased from Cell Signaling Technology (Danvers, MA, USA); anti-β-actin antibody (ab8226) and anti-histone H3 antibody (ab1791) were purchased from Abcam (Cambridge, UK); anti-ace tubulin antibody (66200-1-lg) was purchased from Proteintech Group (Rosemont, IL, USA); anti-γ-catenin antibody was purchased from BD Biosciences (Franklin Lakes, NJ, USA). The GAPDH and β-actin content were analyzed as the loading control.

For the compound `CN(C)Cc1c(C(=O)NCCOc2ccc(C(=O)NO)cc2)oc2ccccc12` [PCI-24781], the IC50 turned out to be 15 µM with MEF; 3 µM in the data set with PANC-1; 1.22 µM with PC-3; 33 µM with HCT-15; 0.896 µM with MCF-7; 2.63 µM with T-47D. Moreover, the IC50 in the data set on Caco-2 was 2 µM; with SMMC-7721, 12 µM; with HeLa, 1.81 µM; with A549, 1.16 µM; in the data set with SH-SY5Y it was 6 µM; in data set [5], more than 1 µM. Also, the IC50 with HUVEC (Homo sapiens) came out at 4.2 µM; with HUVEC, 4.17 µM; with MDA-MB-231, 0.663 µM. Also, the “expression levels of PMCA1 and PMCA4b” value in data set [1] (MDA-MB-231, RT-qPCR) is “not affected”. The “expression levels of Gαq and PLCβ3” value in [1] (MDA-MB-231, Western blot and RT-qPCR) is reported as “significantly decreased”. Also, the “histological changes in the main organs (heart, liver, lung, spleen, and kidney)” value in data set [2] is listed as “did not exhibit serious histological changes”. The “influx of intracellular calcium ions induced by thrombin, ionomycin, and carbachol” value in the data set with MDA-MB-231 cells [3] is given as “completely inhibited”. Also, the “apoptosis (TUNEL)” value with MDA-MB-231 cells [4] is “higher rate of apoptosis”. In the data set on RGS2 promoter, the “H3 acetylation at RGS2 promoter regions (qChIP)” value was “strong binding to RGS2 #2 and #3 promoter regions of H3 acetylation”. Further, the “acetylated histone H3 and acetylated α-tubulin levels” value with histone deacetylase is “time-dependent and dose-dependent accumulation of acetylated histone H3 (H3) and acetylated α-tubulin”.
